Here are results for six molecules from ChEMBL document CHEMBL4396971, “Discovery of potent and orally bioavailable indazole-based glucagon receptor antagonists for the treatment of type 2 diabetes” (Bioorg Med Chem Lett, 2019).

Calls of active or inactive are those of the source. Some results are limits rather than exact numbers.

One data set has as its target Glucagon receptor (Homo sapiens, UniProt P47871). Briefly: Inhibition of human full length GCGR transfected in HEK293 cells assessed as reduction in glucagon-induced cAMP response by LANCE TR-FRET assay. It is filed as functional, cell-based. In general terms: TR-FRET usually uses a lanthanide donor and a delayed reading to cut background.
Data set [1] in a line: Stability in human liver microsomes assessed as parent compound remaining at 1 uM incubated for 10 mins. It is filed as ADME, Microsome. The settings on record: read-out: Stability.
The nature of data set [2]: Stability in mouse liver microsomes assessed as parent compound remaining at 1 uM incubated for 10 mins. In kind it is ADME, Microsome. The settings on record: liver microsomes, read-out: Stability. A general note: Liver microsomes are a subcellular fraction often used to study metabolism.
A short description of data set [3]: Stability in dog liver microsomes assessed as parent compound remaining at 1 uM incubated for 10 mins. It is filed as ADME, Canis lupus familiaris, Microsome. The settings on record: liver microsomes, read-out: Stability.
The nature of data set [4]: Stability in rat liver microsomes assessed as parent compound remaining at 1 uM incubated for 10 mins. It is filed as ADME, Microsome. The note with it: read-out: Stability.
Data set [5] is described as follows: Volume of distribution at steady state in C57 mouse at 5 mg/kg, iv or 20 mg/kg, po. It is filed as ADME, organism-based. The settings on record: in vivo, read-out: Vdss.
Data set [6] relates to Canis familiaris. In words: Antidiabetic activity in Beagle dog assessed as reduction in blood glucose AUC at 10 mg/kg, po administered via gavage as single dose 90 mins prior to glucagon challenge by glucometer analysis. In kind it is functional, organism-based. The note with it: Canis lupus familiaris.
The nature of data set [7]: AUClast in C57 mouse at 5 mg/kg, iv or 20 mg/kg, po. The settings on record: in vivo. In kind it is ADME, organism-based.
Data set [8] in a line: AUClast in dog at 2 mg/kg, iv or 10 mg/kg, po. In kind it is ADME, organism-based, Canis lupus familiaris. The note with it: in vivo.
Data set [9] is described as follows: Cmax in C57 mouse at 5 mg/kg, iv or 20 mg/kg, po. In kind it is ADME, organism-based. The settings on record: in vivo.
Data set [10] is described as follows: Volume of distribution at steady state in dog at 2 mg/kg, iv or 10 mg/kg, po. In kind it is ADME, organism-based, Canis lupus familiaris. The note with it: in vivo, read-out: Vdss.
The target in data set [11] is T1, Cytochrome P450 3A4 (Homo sapiens, UniProt P08684). In words: Inhibition of CYP3A4 (unknown origin) using testosterone as substrate. In kind it is ADME.
T1 sequence (P08684 whole entry): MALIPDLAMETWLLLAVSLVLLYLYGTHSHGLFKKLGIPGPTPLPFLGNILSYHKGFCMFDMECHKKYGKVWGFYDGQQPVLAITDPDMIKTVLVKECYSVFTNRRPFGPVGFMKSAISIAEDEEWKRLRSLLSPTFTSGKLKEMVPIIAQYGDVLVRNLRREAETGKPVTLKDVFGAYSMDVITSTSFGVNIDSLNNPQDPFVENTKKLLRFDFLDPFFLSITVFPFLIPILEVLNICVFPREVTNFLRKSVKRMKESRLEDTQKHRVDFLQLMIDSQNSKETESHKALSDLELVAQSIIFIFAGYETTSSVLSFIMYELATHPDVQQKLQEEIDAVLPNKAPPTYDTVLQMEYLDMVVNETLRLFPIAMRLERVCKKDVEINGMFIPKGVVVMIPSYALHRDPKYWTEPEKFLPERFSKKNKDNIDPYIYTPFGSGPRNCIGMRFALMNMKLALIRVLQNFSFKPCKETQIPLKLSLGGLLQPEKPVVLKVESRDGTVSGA
A short description of data set [12]: Half life in dog at 2 mg/kg, iv. It is filed as ADME, organism-based, Canis lupus familiaris. The note with it: in vivo.
The next data set deals with T2, Cytochrome P450 1A2 (Homo sapiens, UniProt P05177).
T2 sequence (P05177 whole entry): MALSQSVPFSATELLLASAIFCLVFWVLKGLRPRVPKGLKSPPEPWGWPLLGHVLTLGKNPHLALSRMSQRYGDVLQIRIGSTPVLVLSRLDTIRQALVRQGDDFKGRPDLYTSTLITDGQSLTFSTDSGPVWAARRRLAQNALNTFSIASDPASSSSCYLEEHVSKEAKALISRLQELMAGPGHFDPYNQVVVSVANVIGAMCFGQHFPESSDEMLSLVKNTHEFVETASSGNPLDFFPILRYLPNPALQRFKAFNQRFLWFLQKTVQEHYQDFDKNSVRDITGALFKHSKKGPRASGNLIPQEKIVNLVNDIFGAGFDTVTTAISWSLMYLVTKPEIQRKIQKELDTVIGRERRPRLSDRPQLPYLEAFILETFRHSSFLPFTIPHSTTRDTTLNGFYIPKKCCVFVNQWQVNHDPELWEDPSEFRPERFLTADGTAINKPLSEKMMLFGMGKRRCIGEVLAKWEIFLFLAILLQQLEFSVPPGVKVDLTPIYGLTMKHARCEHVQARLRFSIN
Briefly: Inhibition of CYP1A2 (unknown origin) using phenacetin as substrate. It is filed as ADME.

Data set [13] can be described thus: Clearance in dog at 2 mg/kg, iv or 10 mg/kg, po. It is filed as ADME, organism-based, Canis lupus familiaris. The note with it: in vivo.
The target of a further data set is Cytochrome P450 2C19 (Homo sapiens, UniProt P33261). Briefly: Inhibition of CYP2C19 (unknown origin) using S-Mephenytoin as substrate. It is filed as ADME.
Chain of Cytochrome P450 2C19 (P33261 whole entry): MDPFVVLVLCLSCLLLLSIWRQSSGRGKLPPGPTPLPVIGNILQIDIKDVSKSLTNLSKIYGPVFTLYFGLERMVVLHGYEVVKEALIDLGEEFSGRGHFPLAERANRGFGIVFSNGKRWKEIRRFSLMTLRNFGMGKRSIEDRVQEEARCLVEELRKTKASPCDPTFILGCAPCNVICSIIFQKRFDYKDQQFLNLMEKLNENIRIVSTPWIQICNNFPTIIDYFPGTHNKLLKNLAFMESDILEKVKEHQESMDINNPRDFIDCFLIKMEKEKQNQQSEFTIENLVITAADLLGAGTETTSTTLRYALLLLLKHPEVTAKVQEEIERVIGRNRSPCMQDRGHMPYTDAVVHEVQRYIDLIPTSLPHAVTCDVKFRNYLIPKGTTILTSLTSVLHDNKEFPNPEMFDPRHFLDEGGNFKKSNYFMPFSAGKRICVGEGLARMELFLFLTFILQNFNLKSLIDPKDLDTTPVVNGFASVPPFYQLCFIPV
The next data set deals with Cytochrome P450 2C9 (Homo sapiens, UniProt P11712). Briefly: Inhibition of CYP2C9 (unknown origin) using tolbutamide as substrate. It is filed as ADME.
Chain of Cytochrome P450 2C9 (P11712 whole entry): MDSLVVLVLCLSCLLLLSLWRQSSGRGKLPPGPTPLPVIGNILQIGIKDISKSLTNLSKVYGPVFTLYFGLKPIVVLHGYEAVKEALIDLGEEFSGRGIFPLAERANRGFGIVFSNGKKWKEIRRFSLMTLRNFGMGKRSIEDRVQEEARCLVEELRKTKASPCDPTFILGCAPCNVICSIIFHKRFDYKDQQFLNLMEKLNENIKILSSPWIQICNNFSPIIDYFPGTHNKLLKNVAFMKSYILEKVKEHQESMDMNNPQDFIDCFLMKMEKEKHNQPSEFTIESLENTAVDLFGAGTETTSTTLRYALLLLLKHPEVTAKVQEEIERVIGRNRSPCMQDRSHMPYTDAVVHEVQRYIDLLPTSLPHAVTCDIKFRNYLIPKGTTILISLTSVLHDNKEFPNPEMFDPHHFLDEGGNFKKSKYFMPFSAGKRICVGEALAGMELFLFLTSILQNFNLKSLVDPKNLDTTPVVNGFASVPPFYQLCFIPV
A short description of data set [14]: AUClast in Sprague-Dawley rat at 2 mg/kg, iv or 10 mg/kg, po. The note with it: in vivo. In kind it is ADME, organism-based.
Data set [15] is described as follows: Half life in C57 mouse at 5 mg/kg, iv. The settings on record: in vivo. It is filed as ADME, organism-based.
A short description of data set [16]: Oral bioavailability in C57 mouse at 20 mg/kg. In kind it is ADME, organism-based. The note with it: in vivo.
Data set [17] in a line: Oral bioavailability in dog at 10 mg/kg. The note with it: in vivo. In kind it is ADME, organism-based, Canis lupus familiaris.
Data set [18] can be described thus: Cmax in Sprague-Dawley rat at 2 mg/kg, iv or 10 mg/kg, po. In kind it is ADME, organism-based. The note with it: in vivo.
Data set [19] is described as follows: Cmax in dog at 2 mg/kg, iv or 10 mg/kg, po. The note with it: in vivo. In kind it is ADME, organism-based, Canis lupus familiaris.
A short description of data set [20]: Protein binding in human plasma at 1 uM. In kind it is ADME, cell-free. The settings on record: read-out: PPB.
A short description of data set [21]: Half life in dog at 10 mg/kg, po. In kind it is ADME, organism-based, Canis lupus familiaris. The note with it: in vivo.
Data set [22] is described as follows: Oral bioavailability in Sprague-Dawley rat at 10 mg/kg. It is filed as ADME, organism-based. The settings on record: in vivo.
Data set [23] in a line: Clearance in Sprague-Dawley rat at 2 mg/kg, iv or 10 mg/kg, po. The settings on record: in vivo. In kind it is ADME, organism-based.
Data set [24] is described as follows: Half life in Sprague-Dawley rat at 2 mg/kg, iv. In kind it is ADME, organism-based. The settings on record: in vivo.
The next data set has as its target Cytochrome P450 2D6 (Homo sapiens, UniProt P10635). In words: Inhibition of CYP2D6 (unknown origin) using dextromethorphan as substrate. It is filed as ADME.
Data set [25] in a line: Antagonist activity at GCGR in dog hepatocytes assessed as inhibition of glucagon-induced cAMP by LANCE TR-FRET assay. In kind it is cell-based, Canis lupus familiaris.
A short description of data set [26]: Half life in C57 mouse at 20 mg/kg, po. In kind it is ADME, organism-based. The note with it: in vivo.
Data set [27] can be described thus: Half life in Sprague-Dawley rat at 10 mg/kg, po. In kind it is ADME, organism-based. The settings on record: in vivo.
Data set [28] can be described thus: Clearance in C57 mouse at 5 mg/kg, iv or 20 mg/kg, po. In kind it is ADME, organism-based. The settings on record: in vivo.
The subject of data set [29] is Canis familiaris. In words: Antidiabetic activity in Beagle dog assessed as reduction in blood glucose level at 10 mg/kg, po administered via gavage as single dose 90 mins prior to glucagon challenge measured up to 60 mins post glucagon challenge by glucometer analysis. In kind it is functional, organism-based. The settings on record: Canis lupus familiaris.
A short description of data set [30]: Volume of distribution at steady state in Sprague-Dawley rat at 2 mg/kg, iv or 10 mg/kg, po. The note with it: in vivo, read-out: Vdss. It is filed as ADME, organism-based.
Data set [31] concerns the target T1, Cytochrome P450 3A4. In words: Inhibition of CYP3A4 (unknown origin) using midazolam as substrate. It is filed as ADME.

Chain of Glucagon receptor (P47871 whole entry): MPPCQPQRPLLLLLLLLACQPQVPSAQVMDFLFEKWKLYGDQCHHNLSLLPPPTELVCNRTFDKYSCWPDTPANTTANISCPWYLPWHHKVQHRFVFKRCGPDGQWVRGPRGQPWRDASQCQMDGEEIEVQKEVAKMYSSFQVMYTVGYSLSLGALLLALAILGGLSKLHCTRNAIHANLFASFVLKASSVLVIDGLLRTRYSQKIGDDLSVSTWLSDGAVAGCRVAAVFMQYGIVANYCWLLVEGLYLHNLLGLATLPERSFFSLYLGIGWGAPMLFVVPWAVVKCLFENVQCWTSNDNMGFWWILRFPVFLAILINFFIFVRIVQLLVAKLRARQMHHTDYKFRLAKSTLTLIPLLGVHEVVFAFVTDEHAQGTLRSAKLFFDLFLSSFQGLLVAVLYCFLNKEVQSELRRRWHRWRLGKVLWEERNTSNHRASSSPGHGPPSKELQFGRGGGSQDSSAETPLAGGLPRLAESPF
Chain of Cytochrome P450 2D6 (P10635 whole entry): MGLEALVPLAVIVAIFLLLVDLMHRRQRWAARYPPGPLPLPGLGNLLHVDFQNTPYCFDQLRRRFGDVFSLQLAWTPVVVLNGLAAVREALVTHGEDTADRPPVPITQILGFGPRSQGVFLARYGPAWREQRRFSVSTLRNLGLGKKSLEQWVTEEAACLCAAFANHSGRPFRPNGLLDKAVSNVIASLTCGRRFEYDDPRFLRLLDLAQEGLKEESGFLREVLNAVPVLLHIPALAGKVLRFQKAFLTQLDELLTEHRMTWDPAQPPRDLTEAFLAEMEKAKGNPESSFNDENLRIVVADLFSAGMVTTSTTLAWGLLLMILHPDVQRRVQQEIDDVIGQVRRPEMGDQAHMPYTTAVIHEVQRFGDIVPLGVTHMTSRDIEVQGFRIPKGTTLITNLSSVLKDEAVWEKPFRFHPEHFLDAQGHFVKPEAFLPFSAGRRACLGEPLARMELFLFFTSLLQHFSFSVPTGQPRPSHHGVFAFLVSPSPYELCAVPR

Take `CC(C)C[C@H](c1ccc(C(=O)NCCC(=O)O)cc1)n1ncc2cc(-c3ccc(C(F)(F)F)cc3)ccc21`: the Ki – broadly, the equilibrium dissociation constant of an inhibitor or competing ligand from its target – at Glucagon receptor was 96 nM.
In the case of `COc1c(-c2ccc(C(F)(F)F)cc2Cl)ccc2nn([C@H](CC(C)C)c3ccc(C(=O)NCCC(=O)O)cc3)cc12`, the remaining at 10 min, 1 µM was 116% in data set [1], 76% in [2], 79% in [3] and 100% in data set [4].
Turning to `CC(C)CC(c1ccc(C(=O)NCCC(=O)O)cc1)n1ncc2cc(-c3ccc(C(F)(F)F)cc3)ccc21` (racemic), the Ki on Glucagon receptor was found to be 125 nM.
For the molecule `Cc1c(-c2ccc(C(F)(F)F)cc2Cl)ccc2nn([C@@H](CC(C)C)c3ccc(C(=O)NCCC(=O)O)cc3)cc12`, the Vd in data set [5] is 2.24 L/kg; in data set [10], 0.17 L/kg; in data set [30], 2.46 L/kg. Moreover, the inhibition entry with Canis familiaris [6] and with Canis familiaris [29] was “Active” throughout. For the same molecule, the AUC(0-t) (usually exposure summed from dosing to a finite time, without extrapolation to infinity) in data set [7] was determined as 44.9 µM·h; in data set [8], 248 µM·h; in data set [14] it was 1.4 µM·h. The results for the Cmax in [9], in data set [18] and in data set [19] were 7.6 µM, 0.2 µM and 21.9 µM, respectively. The IC50 at Cytochrome P450 3A4 [11], at Cytochrome P450 1A2, on Cytochrome P450 2C19, against Cytochrome P450 2C9, against Cytochrome P450 2D6 and on Cytochrome P450 3A4 [31] was > 10000 nM in each case. For the same molecule, the half-life (usually the time needed for the level to fall by half in the phase considered) was 5.5 h in data set [12]; 2.8 h in [15]; 7.3 h in data set [21]; 1.9 h in [24]; 3.1 h in data set [26]; 7.7 h in data set [27]. For the same molecule, the clearance in data set [13] is 0.42 mL/min/kg; in [23], 26.5 mL/min/kg; in data set [28] it was 10.2 mL/min/kg. Further, the remaining at 10 min, 1 µM in data set [1] worked out at 118%; in data set [2], 97%; in [3] it was 75%; in data set [4], 107%. Moreover, the values for the bioavailability in [16], in data set [17] and in data set [22] were 78.6%, 35.7% and 13.2%, respectively. Also, the fraction unbound at 1 µM in data set [20] was determined as 0.0001. For the same molecule, the Ki is 23 nM at Glucagon receptor and 90 nM in [25].
`CC(C)C[C@@H](c1ccc(C(=O)NCCC(=O)O)cc1)n1ncc2cc(-c3ccc(C(F)(F)F)cc3)ccc21`: the inhibition constant (Ki) on Glucagon receptor was 460 nM.
Regarding `COc1c(-c2ccc(C(F)(F)F)cc2Cl)ccc2nn([C@@H](CC(C)C)c3ccc(C(=O)NCCC(=O)O)cc3)cc12`, the remaining at 10 min, 1 µM in data set [1] was determined as 89%; in [2] it was 82%; in [3] it was 76%; in data set [4] it was 84%.
